Laboratory results: patent US20250115597A1, “TYK2 INHIBITORS AND COMPOSITIONS AND METHODS THEREOF” (LYNK PHARMACEUTICALS CO. LTD., priority 2021, published 2025)
Where two headings read alike, the source gives them in different places.

Columns and labels:
[1] = biological target: T1, Ba/F3-FL-TYK2-P760L cells (Homo sapiens, UniProt P29597, P760L, cells depend on it); experiment: Anti-proliferative assay, Ba/F3-FL-TYK2-P760L cells (Cell-Titer Glo); assay type: cell-based; conditions: 72 h, read-out: BaF3-FL-T2P760L IC50
T1 construct: BaF3-FL-T2P760L (nM)
T1 sequence (P29597 whole entry P760L): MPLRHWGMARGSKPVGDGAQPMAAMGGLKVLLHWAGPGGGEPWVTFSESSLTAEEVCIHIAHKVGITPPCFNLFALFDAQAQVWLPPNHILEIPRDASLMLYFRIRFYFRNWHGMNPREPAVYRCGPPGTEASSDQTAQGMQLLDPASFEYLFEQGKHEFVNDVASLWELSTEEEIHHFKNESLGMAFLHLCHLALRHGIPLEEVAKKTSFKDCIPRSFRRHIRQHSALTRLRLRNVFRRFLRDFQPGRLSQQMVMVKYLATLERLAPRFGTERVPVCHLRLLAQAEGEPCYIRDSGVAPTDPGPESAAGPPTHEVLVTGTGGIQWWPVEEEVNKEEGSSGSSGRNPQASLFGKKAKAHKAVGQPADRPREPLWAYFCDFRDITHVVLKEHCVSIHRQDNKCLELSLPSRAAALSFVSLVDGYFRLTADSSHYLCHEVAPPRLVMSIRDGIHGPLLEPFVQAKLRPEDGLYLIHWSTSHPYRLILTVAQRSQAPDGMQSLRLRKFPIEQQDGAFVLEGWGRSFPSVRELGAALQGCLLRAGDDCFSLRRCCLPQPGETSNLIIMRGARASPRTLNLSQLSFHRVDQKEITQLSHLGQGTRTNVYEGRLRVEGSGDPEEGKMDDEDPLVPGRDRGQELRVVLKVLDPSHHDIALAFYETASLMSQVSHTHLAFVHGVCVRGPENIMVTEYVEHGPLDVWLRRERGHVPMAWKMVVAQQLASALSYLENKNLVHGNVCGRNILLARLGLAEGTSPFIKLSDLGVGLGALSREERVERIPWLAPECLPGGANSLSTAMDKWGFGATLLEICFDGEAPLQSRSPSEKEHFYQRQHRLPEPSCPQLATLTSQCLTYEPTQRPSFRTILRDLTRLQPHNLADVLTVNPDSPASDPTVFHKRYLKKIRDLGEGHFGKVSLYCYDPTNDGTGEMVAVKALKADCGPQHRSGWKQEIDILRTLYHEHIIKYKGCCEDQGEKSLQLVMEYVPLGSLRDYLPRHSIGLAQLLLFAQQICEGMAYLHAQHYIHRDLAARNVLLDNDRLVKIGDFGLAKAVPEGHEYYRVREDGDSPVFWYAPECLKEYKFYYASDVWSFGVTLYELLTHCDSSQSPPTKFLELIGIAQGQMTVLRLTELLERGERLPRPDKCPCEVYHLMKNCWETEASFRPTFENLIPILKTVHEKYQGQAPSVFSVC
Summary of the method: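 Compound exposure ran 72 h at 37 °C in 5% CO2 across nine 3-fold concentrations from a 20 μM top dose, added 24 h after seeding 2000 cells/well.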

pSTAT1 [2] = experiment: Phosphorylation inhibition of STAT in human whole blood, IFN-alpha stimulated (flow cytometry); assay type: cell-based; conditions: 20 min, read-out: IC50 on pSTAT1 inhibition in h WB
Summary of the method: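 Readout is pSTAT1 (Y701) in CD3-stained cells by flow cytometry, with IC50 derived from a 4-parameter logistic equation. Fresh human PBMC or fresh whole blood received a 20-min Universal Type I IFN-alpha stimulation before fixation and cold permeabilization.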

pSTAT1 [3] = experiment: Phosphorylation inhibition of STAT in human PBMC, IFN-alpha stimulated (flow cytometry); assay type: cell-based; conditions: 20 min, read-out: IC50 on pSTAT1 inhibition in hPBMC
Experimental: Phosphorylation Inhibition of STAT in Human PBMC and Human Whole Blood Testing:
The inhibitory potential of test articles in human PBMC and human whole blood assay was evaluated by the method of flow cytometry.
IFN-alpha will activate JAK1 and TYK2 kinase in T cells by binding to IFN receptors, and then lead to phosphorylation of STAT1 and STAT2. The phosphorylated STAT1 enter nuclear and promote transcription and expression of IFN-gamma. To evaluate the efficacy of TYK2i in T cells, freshly prepared human PBMC or freshly collected human whole blood will be stimulated with certain unit of human IFN-alpha (Universal Type I IFN(1MU), R&D, 11200-2) for 20 mins in incubator. After stimulation, fix cells with Phosflow™ Fix Buffer I (BD, 557870), and then collect fixed cells by centrifugation (500 g, 8 min). Wash cells once with pre-cooled PBS, and then permeabilize cells with cold Perm Buffer III buffer (BD, 558050) for 45 mins on ice. Collect cells by centrifugation (600 g, 8 min) and washed twice with cold PBS. Stain cells with anti-human CD3 (FITC Mouse Anti-Human CD3, BD, 555332) and anti-pSTAT1_Y701(Alexa Fluor 647 Mouse Anti-Stat1 (pY701), BD, 612597) antibodies. Detect pSTAT1 by flow cytometry (CytoFlex S) and analyze data with FlowJo and GraphPad Prism 8 software. IC50 values of test articles were determined using 4-parameter logistic equation.

[4] = Microsomal metabolic stability assay; assay type: in vitro ADME; conditions: pH 7.4, 0.5 mg/mL protein, 1 μM compound
Summary of the method: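 Parent loss was tracked by LC/MS/MS at 0, 5, 15, 30 and 45 min, with half-life derived from the ln(% remaining)–time slope. Incubation at 37 °C, pH 7.4 phosphate/EDTA buffer: 0.5 mg/mL microsomes, 1 μM compound, NADPH-regenerated (2 mM).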

TYK2-JH2 domain = biological target: T2, TYK2-JH2 domain (Homo sapiens, UniProt P29597); experiment: Binding activity test for JH2 domain of TYK2 (Tb-antibody/tracer FRET); conditions: for JAK1/TYK2 selectivity: ratio JAK1-JH2 IC50 / TYK2-JH2 IC50
T2 construct: IC50 on JH2 domain activity (nM)
T2 sequence (P29597 589-875 limits assumed): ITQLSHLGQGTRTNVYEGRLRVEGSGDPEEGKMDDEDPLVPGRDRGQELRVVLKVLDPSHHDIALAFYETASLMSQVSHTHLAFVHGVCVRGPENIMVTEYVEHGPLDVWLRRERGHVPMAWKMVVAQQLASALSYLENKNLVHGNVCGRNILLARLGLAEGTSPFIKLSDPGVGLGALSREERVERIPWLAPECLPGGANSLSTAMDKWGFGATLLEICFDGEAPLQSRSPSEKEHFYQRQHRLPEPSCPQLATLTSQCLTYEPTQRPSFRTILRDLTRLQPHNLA
Summary of the method: (§1)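 FRET read-out after 60 min at 25° C plus overnight at 4° C; tracer displacement detected via Tb-labelled antibody on the JH2 domain. Dose-response used 11 points at 3-fold dilution.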

JAK1-JH2 domain = biological target: T3, JAK1-JH2 domain (Homo sapiens, UniProt P23458); experiment: Binding activity test for JH2 domain of JAK1 (Tb-antibody/tracer FRET)
T3 construct: IC50 on JH2 domain activity (nM)
T3 sequence (P23458 583-855 limits assumed): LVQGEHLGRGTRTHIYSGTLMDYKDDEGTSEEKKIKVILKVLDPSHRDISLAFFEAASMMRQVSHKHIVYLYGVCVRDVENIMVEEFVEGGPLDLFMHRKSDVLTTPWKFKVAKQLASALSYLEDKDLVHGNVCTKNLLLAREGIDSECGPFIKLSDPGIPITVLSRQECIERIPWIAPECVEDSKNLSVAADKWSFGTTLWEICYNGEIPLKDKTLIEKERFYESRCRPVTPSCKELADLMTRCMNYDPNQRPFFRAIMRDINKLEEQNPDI
Summary of the method: as §1

[5] = Hepatocytes metabolic stability assay; assay type: in vitro ADME; conditions: cryopreserved hepatocytes, human hepatocytes, 1.0×10^6 cells/mL; for CLint scaled at 1 μM: read-out: Human hepatocyte Clint(liver); for half-life at 1 μM: read-out: Human hepatocyte stability T1/2
Summary of the method: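 Cryopreserved hepatocytes (1.0×10^6 cells/mL final) were incubated with test compound at 1 μM at 37 °C and sampled at 0, 15, 30, 60 and 120 min, with acetonitrile quench and LC-MS/MS. k came from log-linear % remaining versus time, giving T1/2 and CLint.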

JAK1 = biological target: T4, JAK1 (Homo sapiens, UniProt P23458); experiment: JAK1 kinase activity, microfluidic assay (Caliper EZ Reader II); assay type: biochemical; conditions: JAK1 5 nM, 1 mM ATP
T4 construct: purchased Carna Biosciences
T4 sequence (P23458 whole entry): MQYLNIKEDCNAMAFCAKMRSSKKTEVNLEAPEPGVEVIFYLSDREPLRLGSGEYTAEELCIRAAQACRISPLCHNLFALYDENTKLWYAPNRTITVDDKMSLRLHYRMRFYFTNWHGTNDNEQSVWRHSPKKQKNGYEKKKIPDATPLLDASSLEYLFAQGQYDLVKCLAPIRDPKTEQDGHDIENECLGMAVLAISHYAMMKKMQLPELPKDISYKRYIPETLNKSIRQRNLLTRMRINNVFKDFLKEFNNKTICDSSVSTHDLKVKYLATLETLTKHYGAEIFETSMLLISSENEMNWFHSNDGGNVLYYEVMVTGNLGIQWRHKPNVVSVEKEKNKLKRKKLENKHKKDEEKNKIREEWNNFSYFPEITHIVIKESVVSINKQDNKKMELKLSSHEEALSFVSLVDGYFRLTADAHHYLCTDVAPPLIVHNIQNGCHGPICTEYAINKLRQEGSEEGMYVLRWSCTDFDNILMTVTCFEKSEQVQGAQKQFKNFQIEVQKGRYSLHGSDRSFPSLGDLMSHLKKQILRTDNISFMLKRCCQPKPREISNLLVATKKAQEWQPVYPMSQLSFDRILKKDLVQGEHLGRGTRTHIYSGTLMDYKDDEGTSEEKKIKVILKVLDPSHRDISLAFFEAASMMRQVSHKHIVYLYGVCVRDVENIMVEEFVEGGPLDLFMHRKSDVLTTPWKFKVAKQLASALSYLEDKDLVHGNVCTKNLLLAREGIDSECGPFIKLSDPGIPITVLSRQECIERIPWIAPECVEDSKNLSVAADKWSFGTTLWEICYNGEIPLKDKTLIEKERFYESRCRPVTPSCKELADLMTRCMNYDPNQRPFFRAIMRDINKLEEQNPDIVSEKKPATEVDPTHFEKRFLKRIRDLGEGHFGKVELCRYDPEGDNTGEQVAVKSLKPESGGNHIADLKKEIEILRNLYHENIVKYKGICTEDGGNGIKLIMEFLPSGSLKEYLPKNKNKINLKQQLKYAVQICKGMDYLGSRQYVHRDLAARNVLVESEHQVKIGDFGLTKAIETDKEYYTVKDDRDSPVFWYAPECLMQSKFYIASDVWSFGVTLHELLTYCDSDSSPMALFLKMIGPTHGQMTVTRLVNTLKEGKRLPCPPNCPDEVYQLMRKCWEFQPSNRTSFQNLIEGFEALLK
Summary of the method: (§2)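 Human JAK1, JAK2 or TYK2 enzyme was used in 50 mM HEPES, 10 mM MgCl2, 2 mM DTT and 0.01% Brij35, tuned to 10% conversion of a FAM-labelled peptide. Threefold dilutions of compound (top 5 µM, 1% DMSO) were pre-incubated with enzyme for 10 min, and reactions were stopped with EDTA. Phosphorylation was read by microfluidic mobility shift, and IC50 came from percent-inhibition curves.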

JAK2 = biological target: T5, JAK2 (Homo sapiens, UniProt O60674); experiment: JAK2 kinase activity, microfluidic assay (Caliper EZ Reader II); assay type: biochemical; conditions: JAK2 0.125 nM, 1 mM ATP
T5 construct: purchased Carna Biosciences
T5 sequence (O60674 whole entry): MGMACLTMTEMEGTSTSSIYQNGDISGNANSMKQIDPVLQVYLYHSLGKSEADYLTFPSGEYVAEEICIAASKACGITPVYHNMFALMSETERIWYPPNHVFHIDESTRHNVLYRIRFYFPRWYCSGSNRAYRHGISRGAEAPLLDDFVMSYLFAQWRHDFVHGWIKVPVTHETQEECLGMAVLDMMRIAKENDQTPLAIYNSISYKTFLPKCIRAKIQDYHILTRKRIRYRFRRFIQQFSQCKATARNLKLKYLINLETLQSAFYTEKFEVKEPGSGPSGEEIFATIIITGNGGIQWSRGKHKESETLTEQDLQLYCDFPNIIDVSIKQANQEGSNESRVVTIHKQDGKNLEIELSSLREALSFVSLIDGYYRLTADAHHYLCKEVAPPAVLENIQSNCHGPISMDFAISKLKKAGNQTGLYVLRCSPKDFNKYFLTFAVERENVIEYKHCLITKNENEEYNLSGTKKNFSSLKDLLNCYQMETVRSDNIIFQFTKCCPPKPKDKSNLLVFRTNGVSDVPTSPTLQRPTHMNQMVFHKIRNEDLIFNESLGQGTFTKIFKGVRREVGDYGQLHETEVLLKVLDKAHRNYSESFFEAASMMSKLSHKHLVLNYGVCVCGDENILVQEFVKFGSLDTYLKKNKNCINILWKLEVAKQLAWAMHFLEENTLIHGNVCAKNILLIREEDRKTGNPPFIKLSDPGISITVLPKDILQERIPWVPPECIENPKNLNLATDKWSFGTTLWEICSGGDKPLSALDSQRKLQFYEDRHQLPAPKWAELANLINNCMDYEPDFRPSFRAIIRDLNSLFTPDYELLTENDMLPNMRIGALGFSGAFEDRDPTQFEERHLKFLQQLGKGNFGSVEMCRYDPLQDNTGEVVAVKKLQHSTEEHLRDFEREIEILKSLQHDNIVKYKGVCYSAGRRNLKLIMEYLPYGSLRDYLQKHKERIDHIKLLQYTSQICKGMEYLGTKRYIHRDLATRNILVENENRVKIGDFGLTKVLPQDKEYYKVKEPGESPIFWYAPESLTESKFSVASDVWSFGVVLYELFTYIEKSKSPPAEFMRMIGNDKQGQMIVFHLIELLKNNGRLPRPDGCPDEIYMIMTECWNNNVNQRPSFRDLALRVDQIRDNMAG
Summary of the method: as §2

TYK2 = biological target: T6, TYK2 (Homo sapiens, UniProt P29597); experiment: TYK2 kinase activity, microfluidic assay (Caliper EZ Reader II); assay type: biochemical; conditions: TYK2 1 nM, 1 mM ATP
T6 construct: purchased Carna Biosciences
T6 sequence (P29597 whole entry): as the sequence (P29597 whole entry P760L) above, with L760P counted along it
Summary of the method: as §2

[6] = Plasma protein binding by equilibrium dialysis; assay type: in vitro ADME; conditions: human plasma, equilibrium dialysis 5 hours at 37° C.; read-out: % Bound (human) (converted)
Summary of the method: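 Compound spiked into plasma at 0.2 and 2 μM was dialyzed against PBS for 5 h at 37° C with shaking, in duplicate. Plasma and buffer chambers were matrix-matched, protein-precipitated and analysed by LC-MS/MS to derive % unbound, % bound and % recovery.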

[7] = human whole blood, IFN-alpha 20 mins, CD3 cells
[8] = human PBMC, IFN-alpha 20 mins, CD3 cells
[9] = dog liver microsomes, read-out: Dog LM Clint
[10] = dog liver microsomes, read-out: Dog LM T½
[11] = human liver microsomes, read-out: Human LM Clint
[12] = human liver microsomes, read-out: Human LM T½
[13] = rat liver microsomes, read-out: Rat LM Clint
[14] = rat liver microsomes, read-out: Rat LM T½

Row | Structure (SMILES) | GI50 [1] [nM] | IC50 (pSTAT1 [2]; [7]) [nM] | IC50 (pSTAT1 [3]; [8]) [nM] | microsomal CLint at 1 μM [4, 9] [µL/min/mg] | half-life at 1 μM [4, 10] [h] | microsomal CLint at 1 μM [4, 11] [µL/min/mg] | half-life at 1 μM [4, 12] [h] | microsomal CLint at 1 μM [4, 13] [µL/min/mg] | half-life at 1 μM [4, 14] [h] | IC50 (TYK2-JH2 domain) [nM] | CLint scaled at 1 μM [5] [mL/min/kg] | half-life at 1 μM [5] [h] | other results
1 | [2H]C([2H])([2H])NC(=O)c1nnc2cc1Nc1cc(cc(-c3ncn(C)n3)c1OC)COCc1cc(F)cc(n1)N2 [Example 71, 19-Fluoro-10-methoxy-N-(methyl-d3)-11-(1-methyl-1H-1,2,4-triazol-3-yl)-15-oxa-2,4,5,8,21-pentaazatetracyclo[15.3.1.1^{3,7}.1^{9,13}]tricosa-1(21),3,5,7(23),9(22),10,12,17,19-nonaene-6-carboxamide] | 48.7 | 823 | 79.5 | 5.63 | 4.1 | 27.4 | 0.843 | 21.9 | 1.05 |  |  |  | 
2 | [2H]C([2H])([2H])NC(=O)c1cnc(NC(=O)C2CC2)cc1Nc1ccn2ncc(C)c2c1OC [Example 169, 6-(Cyclopropanecarboxamido)-4-((4-methoxy-3-methylpyrazolo[1,5-a]pyridin-5-yl)amino)-N-(methyl-d3)nicotinamide] | 64.9 | 422 | 35.1 |  |  |  |  |  |  | 0.31 | 8.6 | 3.44 | JAK1/TYK2 selectivity (TYK2-JH2 domain): 28.3; IC50 (JAK1-JH2 domain): 8.76 nM
3 | [2H]C([2H])([2H])NC(=O)c1cnc2cc1Nc1cc(cc(-c3ncn(C4CC4)n3)c1OC)COCc1nc(ccc1F)N2 [Example 83, 11-(1-Cyclopropyl-1H-1,2,4-triazol-3-yl)-18-fluoro-10-methoxy-N-(methyl-d3)-15-oxa-2,4,8,21-tetraazatetracyclo[15.3.1.1^{3,7}.1^{9,13}]tricosa-1(20),3,5,7(23),9(22),10,12,17(21),18-nonaene-6-carboxamide] | 38.7 | 1580 | 113 | 26.7 | 0.866 | < 11.5 | > 2 | < 11.5 | > 2 |  |  |  | 
4 | [2H]C([2H])([2H])NC(=O)c1cnc(Nc2ccc(F)cn2)cc1Nc1cn(C)c2c(F)cn(CC)c(=O)c12 [Example 125, 4-((5-Ethyl-7-fluoro-1-methyl-4-oxo-4,5-dihydro-1H-pyrrolo[3,2-c]pyridin-3-yl)amino)-6-((5-fluoropyridin-2-yl)amino)-N-(methyl-d3)nicotinamide] | 31.9 | 581 | 75.7 |  |  |  |  |  |  | 1.44 |  |  | 
5 | [2H]C([2H])([2H])NC(=O)c1cnc(NC(=O)C2CC2)cc1Nc1ccc2cnn(CC#N)c2c1OC [Example 202, 4-((1-(Cyanomethyl)-7-methoxy-1H-indazol-6-yl)amino)-6-(cyclopropanecarboxamido)-N-(methyl-d3)nicotinamide] | 45.7 | 147 | 33.3 |  |  |  |  |  |  |  |  |  | IC50 (JAK1): > 5000 nM; IC50 (JAK2): > 5000 nM; IC50 (TYK2): > 5000 nM; fraction unbound at 5 h [6]: 0.113
6 | [2H]C([2H])([2H])NC(=O)c1cnc(NC(=O)C2CC2)cc1Nc1ccn2ncc(CC)c2c1OC [Example 166, 6-(Cyclopropanecarboxamido)-4-((3-ethyl-4-methoxypyrazolo[1,5-a]pyridin-5-yl)amino)-N-(methyl-d3)nicotinamide] | 51.6 | 471 | 20.7 |  |  |  |  |  |  | 0.154 | 11.2 | 2.61 | JAK1/TYK2 selectivity (TYK2-JH2 domain): 88.3; IC50 (JAK1-JH2 domain): 13.6 nM
7 | [2H]C([2H])([2H])NC(=O)c1nnc(NC(=O)C2CC2)cc1Nc1csc2ccn(CC)c(=O)c12 [Example 197, 6-(Cyclopropanecarboxamido)-N-(methyl-d3)-4-((5-ethyl-4-oxo-4,5-dihydrothieno[3,2-c]pyridin-3-yl)amino)pyridazine-3-carboxamide] | 54.3 | 863 | 428 | 20.8 | 1.11 | 77.7 | 0.298 | 290 | 0.0798 |  | < 7.35 | > 4 | 
8 | [2H]C([2H])([2H])NC(=O)c1nnc(NC(=O)C2CC2)cc1Nc1cn(C)c2ccn(CC)c(=O)c12 [Example 223, 6-(Cyclopropanecarboxamido)-4-((5-ethyl-1-methyl-4-oxo-4,5-dihydro-1H-pyrrolo[3,2-c]pyridin-3-yl)amino)-N-(methyl-d3)pyridazine-3-carboxamide] | 82.7 | 376 | 43.4 |  |  |  |  |  |  |  |  |  | 
9 | [2H]C([2H])([2H])NC(=O)c1cnc(NC(=O)C2CC2)cc1Nc1csc2cnn(CC)c(=O)c12 [Example 231, 6-(Cyclopropanecarboxamido)-4-((5-ethyl-4-oxo-4,5-dihydrothieno[2,3-d]pyridazin-3-yl)amino)-N-(methyl-d3)nicotinamide] | 65.9 |  |  |  |  |  |  |  |  | 0.979 |  |  | IC50 (pSTAT1 [2]; Homo sapiens): 14400 nM; IC50 (pSTAT1 [3]; Homo sapiens, PBMC): 3510 nM
10 | [2H]C([2H])([2H])NC(=O)c1cnc(NC(=O)C2CC2)cc1Nc1cn(CC2CC2)c2ncn(CC)c(=O)c12 [Example 213, 6-(Cyclopropanecarboxamido)-4-((7-(cyclopropylmethyl)-3-ethyl-4-oxo-4,7-dihydro-3H-pyrrolo[2,3-d]pyrimidin-5-yl)amino)-N-(methyl-d3)nicotinamide] | 74.5 | 376 | 107 |  |  |  |  |  |  | 0.25 |  |  | fraction unbound at 5 h [6]: 0.025
